These results are taken from US20240269085A1, “CO[…] COMPOUNDS AND PRODUCTION THEREOF” (Esolate Ltd, priority 2019, published 2024).

What all share (assay type): physicochemical
Data set [1] is described as follows: Visual solubility in simulated stomach conditions (0.155 M HCl with NaCl, 37° C.). Here is the method:
Bioavailability of the cannabinoid ultrafine nanoparticles obtained as described in Example 4 was assessed by visually evaluating the solubility of the fine nanoparticles in simulated stomach conditions. 0.5 g of NaCl was added to a 0.155 M solution of HCl in water to replicate stomach acidic conditions. 10 mg of the fine nanoparticles, 10 mg of the isolates in crystalline form, and 10 mg of the distillates were each placed in vials containing 10 ml of the acidic solution and incubated for 10 hours at 37° C. At the end of the 10-hour period, only minimal solubility of the preparations was observed. Additional 10 ml of the acidic solution were added, and the mixtures were incubated for 10 more hours at 37° C. At the end of the 20-hour period, the cannabinoid nanoparticles dissolved in the acidic solution.

Data set [2] in a line: Solubility in water.
The nature of data set [3]: Relative bioavailability test: HPLC-UV of CBD concentration in water. The conditions noted are these: after 32 hours elapsed time. Here is the method: Relative bioavailability tests of the cannabinoid ultrafine nanoparticles obtained as described in Example 4 (test samples) as compared to cannabinoid isolates in water (control samples) were performed using a high performance liquid chromatography (HPLC) separator equipped with a UV detector to determine the concentration of CBD in each sample. Control samples were prepared by filtering 1 ml of each sample through a 0.45 μm filter into a 2 ml HPLC vial and 1 ml of methanol (MeOH) was added to each sample vial. HPLC mobile phase was comprised of 65% acetonitrile and 35% water. A flow rate of 1 ml per minute led to the elution of CBD after approximately 4.5 minutes.
A percentage area was measured after 32 hours elapsed time, which represents the amount of CBD in each sample relative to the background signal created by the MeOH in each sample.

For the compound `C=C(C)[C@@H]1CCC(C)=C[C@H]1c1c(O)cc(CCCCC)cc1O` [CBD isolate, cannabidiol], the “solubility in acidic solution” value in data set [1] (10 mg in 20 ml, 20 hours at 37° C.) was “complete insolubility”. Further, the “solubility in acid (visual)” value in data set [1] (acidic solvent resembling stomach conditions) is given as “insoluble”. Also, the “solubility in water (visual)” value in data set [2] was “insoluble”. Moreover, in data set [3], the “percentage area (amount of CBD relative to MeOH background)” value is recorded as 0.7706%.
